The values that follow come from ChEMBL document CHEMBL5727468, “Piperidine compounds as PCSK9 inhibitors” (2019).

A word on the IC50: it is the concentration that gives 50% inhibition.

In the test the target is Proprotein convertase subtilisin/kexin type 9 (Homo sapiens, UniProt Q8NBP7). The test is described as follows: In Vitro Screening Experiment: 1. […] Data Analysis:Date was analyzed with Prismsoftware (nonlinear regression (Sigmoidal dose-response-variable slope)Inhibition ratio %=100*(Sample reading−LC reading)/(HC reading−LC reading).
Proprotein convertase subtilisin/kexin type 9, sequence (Q8NBP7 31-152 limits assumed): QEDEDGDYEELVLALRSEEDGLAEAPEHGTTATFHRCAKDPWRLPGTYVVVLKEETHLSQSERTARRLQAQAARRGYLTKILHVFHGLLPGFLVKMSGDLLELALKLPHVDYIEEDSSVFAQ
Proprotein convertase subtilisin/kexin type 9, sequence (Q8NBP7 153-692 limits assumed): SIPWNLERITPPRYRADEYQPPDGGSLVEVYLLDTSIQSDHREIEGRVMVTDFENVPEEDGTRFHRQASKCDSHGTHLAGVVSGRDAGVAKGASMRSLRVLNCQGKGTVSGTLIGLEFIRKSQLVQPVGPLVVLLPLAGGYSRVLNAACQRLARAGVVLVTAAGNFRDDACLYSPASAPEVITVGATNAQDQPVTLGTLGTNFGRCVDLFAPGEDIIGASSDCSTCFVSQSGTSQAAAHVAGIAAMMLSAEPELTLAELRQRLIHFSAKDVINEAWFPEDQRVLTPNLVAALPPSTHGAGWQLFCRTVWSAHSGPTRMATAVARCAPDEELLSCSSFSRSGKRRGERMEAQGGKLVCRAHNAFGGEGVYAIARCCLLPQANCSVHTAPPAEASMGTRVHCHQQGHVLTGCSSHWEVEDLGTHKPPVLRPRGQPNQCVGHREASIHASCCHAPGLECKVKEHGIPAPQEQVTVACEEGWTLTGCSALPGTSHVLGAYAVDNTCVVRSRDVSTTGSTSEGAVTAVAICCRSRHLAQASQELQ
For `CCc1cccnc1N(C(=O)c1ccc(C2=NOC(C)(C)C2=O)cc1)[C@@H]1CCCNC1`, the IC50 is under 10 µM.

Take `Cc1cccnc1N(C(=O)c1ccc(C2=NOC(C)(C)C2(C)O)cc1)[C@@H]1CCCNC1` (some centres not stated): the IC50 is under 10 µM.

For `CC1(C)ON=C(c2ccc(C(=O)N(c3nccc4ccccc34)[C@@H]3CCCNC3)cc2)C1=O`, the IC50 was under 10 µM.

As to `CC1(C)ON=C(c2ccc(C(=O)N(c3ncccc3C3CC3)[C@@H]3CCCNC3)cc2)C1=O`, the IC50 is under 10 µM.

Regarding `COC1C(c2ccc(C(=O)N(c3ncccc3Cl)[C@@H]3CCCNC3)cc2)=NOC1(C)C` (some centres not stated), the IC50 was under 10 µM.

Turning to `Cc1cccnc1N(C(=O)c1ccc(C2=NOC(C)(C)C2=O)cn1)[C@@H]1CCCNC1`, the IC50 was under 10 µM.

With `COCCOC1C(c2ccc(C(=O)N(c3ncccc3C)[C@@H]3CCCNC3)cc2)=NOC1(C)C` (some centres not stated), the IC50 is under 10 µM.
